Values joined by “and” are separate entries in the source; they are usually repeats but may differ in a detail not shown here. Equal values may be shown once.
Experiments:
[1] = koff value surface plasmon resonance (SPR) method; assay type: ADME
[2] = molecular target: T1, Growth factor receptor-bound protein 2 (Homo sapiens, UniProt P62993); experiment: In vitro Growth factor receptor bound protein 2-binding affinity in surface plasmon resonance (SPR) method
[3] = molecular target: T1, Growth factor receptor-bound protein 2; experiment: In vitro Growth factor receptor bound protein 2-binding affinity in ELISA method
[4] = kd value surface plasmon resonance (SPR) method; assay type: ADME

Koff [1] [s⁻¹]	IC50 [2]	IC50 [3] [nM]	Kd [4] [nM]	SMILES
0.044	12.1 nM	4.3	12.1	NC(=O)C[C@@H]1NC(=O)C2(CCCCC2)NC(=O)[C@@H](CC(=O)O)[C@@H](c2ccc(C(C(=O)[O-])C(=O)[O-])cc2)/C=C/C[C@@H](Cc2cccc3ccccc23)CNC1=O.[Na+].[Na+]
0.11	~80 nM	10	128	NC(=O)C[C@H](NC(=O)C1(NC(=O)[C@H](Cc2ccc(CP(=O)(O)O)cc2)NC(=O)C(=O)O)CCCCC1)C(=O)NCCCc1cccc2ccccc12
0.0056	1.4 nM and 12.1 nM	–	0.9	NC(=O)C[C@@H]1NC(=O)C2(CCCCC2)NC(=O)[C@@H](CC(=O)O)[C@@H](c2ccc(CP(=O)(O)O)cc2)/C=C/C[C@@H](Cc2cccc3ccccc23)CNC1=O
–	–	22.1	–	NC(=O)C[C@H](NC(=O)C1(NC(=O)[C@H](Cc2ccc(C(C(=O)O)C(=O)O)cc2)NC(=O)C(=O)O)CCCCC1)C(=O)NCCCc1cccc2ccccc12

From ChEMBL document CHEMBL1149151, “Macrocyclization in the design of non-phosphorus-containing Grb2 SH2 domain-binding ligands” (J Med Chem, 2004)
